In patent publication US11674965B2, “Method for preparing and analyzing fluorescent compounds in plasma” (MediBeacon, Inc., priority 2017, dated 2023):

Assays:
[1] = Short-term stability of MB-102 in plasma solution (1% plasma/PBS) at 4° C. or room temperature with/without light, HPLC with fluorescence detection; type: physicochemical, human
Experimental: (§1) For sample preparation by direct dilution, calibration standards containing 0.4, 1.0, 2.0, 4.0, 10.0, 16.0, 40.0, 100.0, 200.0, 400.0 ng/mL and quality controls at low, mid, and high level of MB-102 were prepared in 1% human plasma in PBS on the day of the validation study or sample analysis. The MB-102 dosing solution (18.6 mg/mL) used in the clinical study was diluted 1/100 first with 1% human plasma in PBS to form a stock solution of 186 μg/mL MB-102. This stock solution is diluted further with 1% human plasma in PBS to form a calibration standard working stock of 2000 ng/mL MB-102 for preparation of calibration standards. A QC working stock at (300 ng/mL) was also prepared from the 186 μg/mL MB-102 stock by dilution with 1% plasma in PBS. The low, mid, and high levels of quality controls were prepared from this QC working stock by dilution with 1% human plasma in PBS.
(§2) For the samples being analyzed by direct dilution, 10 μL of plasma sample (thawed to room temperature and mixed thoroughly) was diluted with 990 μL 1×PBS, mixed thoroughly for about 10 minutes, and centrifuged at 1000 rpm for 2 minutes. It was directly analyzed by HPLC.
(§3) Analyses were performed on a Waters Acquity UPLC H Class Chromatography System, equipped with column heater, sample heater/cooler, vacuum degasser, autosampler, fluorescence detector, and pump capable of delivering a binary gradient. An HPLC analytical column, Phenomenex Luna C18 (2), 4.6×250 mm, 5 μm, 100 Å (Phenomenex, Cat. No. 00G-4252-E0, S/N H15-133556), and a Security Guard Cartridge C18, 4×3 mm ID, 5 μm (Phenomenex, Cat. No. KJ0-4282) were used for the analysis. The Waters Empower 3 software equipped with the UPLC system was used for assay setup, analysis monitoring, and data processing. Two mobile phases, Mobile Phase A: 0.1% Trifluoroacetic acid in water (Fisher, Optima® Grade) and Mobile Phase B: 0.1% Trifluoroacetic acid in acetonitrile (Fisher Scientific, Optima® Grade) were used. The column temperature was set at 30° C., the autosampler temperature was set at 5° C., the excitation wavelength was set at 434 nm and the detection/emission wavelength was set at 556 nm. The counting rate was set at 5 point/sec; the PMT gain was set at 50; the flow cell temperature was ambient; the injection volume was 10 μL. MB-102 elutes at about 3.6 minutes using the gradient shown.
(§4) Using this HPLC method and sample preparation described herein, a validation study was carried out to determine the precision, accuracy, linearity, reproducibility, plasma and sample solution stability, freeze-thaw stability, lowest limits of quantitation, and specificity. The acceptance criterion was ±15% data deviation from normal values excepted at the lowest limit of quantitation (LLOQ) where it was set at ±20%. Samples were analyzed both in-house and at a GMP contract lab to ensure both the validity of the method and accuracy of the results.
(§5) MB-102 stability during sample handling upon long term storage of plasma samples (frozen at −80° C.) and short-term storage (bench top ambient temperature with/without light exposure, and 2-8° C.) of plasma solution was evaluated. Plasma samples were tested for three freeze/thaw cycles (−80° C. to room temperature). The stability of MB-102 in plasma solution at room temperature with/without light exposure, at 2-8° C., and at auto-sampler temperature (5° C.) was evaluated for time intervals of 24 and 48 hours.

[2] = Pharmacokinetic analysis of MB-102 in plasma of clinical study participants, iohexol co-dosed as reference marker; type: in vivo, human
Experimental: as §2
as §3, with “The column temperature was set at 30° C., the autosampler temperature was set at 5° C., the excitation wavelength was set at 434 nm and the detection/emission wavelength was set at 556 nm. The counting rate was set at 5 point/sec; the PMT gain was set at 50; the flow cell temperature was ambient; the injection volume was 10 μL. MB-102 elutes at about 3.6 minutes using the gradient shown.” left out
In support of the clinical studies to evaluate the utility of MB-102 for kidney function monitoring via transdermal fluorescence sensing, the plasma samples were prepared from blood samples collected at 0, 5, 10, 15, 30, 60, 90, 120, 180, 240, 300, 360, 480, 600, and 720 minutes of each study participant. […]

[3] = Freeze/thaw stability of MB-102 in plasma samples (three cycles, −80° C. to room temperature), HPLC with fluorescence detection; type: physicochemical, human; conditions: for % Recovered / Mean Concentration: 3 Freeze/Thaw cycles
Experimental: as §1, §2, §3, §4, §5

[4] = cited from earlier work
[5] = QCs stored at 4° C. for 48 hours, MB-102 3.7 ng/mL
[6] = QCs stored at 4° C. for 48 hours, MB-102 37.9 ng/mL
[7] = QCs stored at 4° C. for 48 hours, MB-102 372.6 ng/mL
[8] = QCs stored at RT with light, MB-102 3.7 ng/mL
[9] = QCs stored at RT with light, MB-102 37.9 ng/mL
[10] = QCs stored at RT with light, MB-102 372.6 ng/mL
[11] = QCs stored at RT without light, MB-102 3.7 ng/mL
[12] = QCs stored at RT without light, MB-102 37.9 ng/mL
[13] = QCs stored at RT without light, MB-102 372.6 ng/mL
[14] = Sample solution at 4° C. for 48 hours, MB-102 1.76 ng/mL
[15] = Sample solution at 4° C. for 48 hours, MB-102 8.81 ng/mL
[16] = Sample solution at 4° C. for 48 hours, MB-102 61.87 ng/mL

Nc1nc(C(=O)N[C@H](CO)C(=O)O)c(N)nc1C(=O)N[C@H](CO)C(=O)O [MB-102, (2R,2′R)-2,2′-((3,6-diaminopyrazine-2,5-dicarbonyl)bis(azanediyl))bis(3-hydroxypropanoic acid)]
% Recovered [1, 5]: 101.1% | Mean Concentration [1, 5]: 3.74 ng/mL | % Recovered [1, 6]: 99.1% | Mean Concentration [1, 6]: 37.55 ng/mL | % Recovered [1, 7]: 100.2% | Mean Concentration [1, 7]: 373.50 ng/mL | % Recovered [1, 8]: 101.6% | Mean Concentration [1, 8]: 3.76 ng/mL | % Recovered [1, 9]: 96.0% | Mean Concentration [1, 9]: 36.40 ng/mL | % Recovered [1, 10]: 97.9% | Mean Concentration [1, 10]: 364.59 ng/mL | % Recovered [1, 11]: 104.6% | Mean Concentration [1, 11]: 3.87 ng/mL | % Recovered [1, 12]: 98.0% | Mean Concentration [1, 12]: 37.15 ng/mL | % Recovered [1, 13]: 100.0% | Mean Concentration [1, 13]: 372.58 ng/mL | % Recovered [1, 14]: 99.4% | Mean Concentration [1, 14]: 1.75 ng/mL | % Recovered [1, 15]: 98.3% | Mean Concentration [1, 15]: 8.66 ng/mL | % Recovered [1, 16]: 98.3% | Mean Concentration [1, 16]: 60.84 ng/mL | degradation of MB-102 ([1]; solution stored at room temperature with light for 48 hours): 1-2% | sample solution stability ([1]; stored at 4° C. for up to 48 hours): very stable | sample solution stability ([1]; stored at room temperature without light for up to 48 hours): very stable | clearance rate ([2]; 12 subjects, FIG. 7): varies among patients | clearance rate compared with iohexol ([2]; three subjects, iohexol co-dosed, FIGS. 8a-8c): parallel to that of iohexol | % Recovered ([3]; MB-102 1.76 ng/mL): 101.7% | Mean Concentration ([3]; MB-102 1.76 ng/mL): 1.79 ng/mL | % Recovered ([3]; MB-102 8.81 ng/mL): 100.0% | Mean Concentration ([3]; MB-102 8.81 ng/mL): 8.81 ng/mL | % Recovered ([3]; MB-102 61.87 ng/mL): 100.8% | Mean Concentration ([3]; MB-102 61.87 ng/mL): 62.34 ng/mL | stability over freeze/thaw cycles ([3]; three freeze/thaw cycles, plasma at −80° C.): very stable

CC(=O)N(CC(O)CO)c1c(I)c(C(=O)NCC(O)CO)c(I)c(C(=O)NCC(O)CO)c1I (centres unmarked) [Iohexol, iohexol]
metabolism ([4]; patient): not metabolized | route of elimination ([4]; without tubular renal secretion or reabsorption): entirely eliminated by simple glomerular filtration
